From patent US9428520B2, “Daphne genkwa extracts, and pharmaceutical composition containing fractions of the extracts or compounds separated from the extracts as active ingredients for preventing or treating atopic dermatitis” (priority 2011, dated 2016)

What was measured:
NK92 cells = experiment: RT-PCR of cytokine mRNA levels in NK92 cells; format: cell-based, human; details: 2 ng, FIG. 2A
Experimental: (§1) Human cell lines (A549, NK92, muDC, Jurkat) were cultured in a 37° C., 5% CO2 humidified incubator.
Particularly, NK92 (human NK lymphoma), the IL-2 dependent NK cell line, was purchased from ATCC (American Type Culture Collection). The NK92 cell line was maintained in α-MEM (Life Technologies, Karlsruhe, Germany) supplemented with 20% FCS (HyClone, Logan, Utah), 2 mM […], 100 μg/ml penicillin, 100 μg/ml streptomycin (Life Technologies) and 100 U/ml IL-2 (Chiron, Emeryville, Calif.).
(§2) RT-PCR was performed to investigate the changes of mRNA levels in relation to the inducement of IFN-γ, IL-2, and IL-12 in A549, NK92, muDC, and Jurkat cells cultured in <Example 2>. These cells were cultured in the presence of 2 ng of genekwadapnin or yuanhuacine for 12 hours.
Phase II RT-PCR was performed with oligo-dT primer, reverse transcriptase, specific primer set, and Taq polymerase (Takara, Shiga, Japan). Total RNA was isolated according to the standard protocol. cDNA was synthesized by using Accusript High Fidelity 1st Strand cDNA Synthesis Kit (Stratagene) according to the manufacturer's instruction. 1 μl of the synthesized cDNA was used for PCR with 20 μl of reaction mixture containing 0.5 U ExTaq DNA polymerase, 1× buffer, 1 mM dNTP mix (Takara) and specific primer set. PCR amplification was performed using GeneAmp PCR system 2700 (Applied Biosystems, Foster city, CA, USA) as follows: predenaturation at 94° C. for 5 minutes, denaturation at 94° C. for 45 seconds, annealing at 56° C. for 45 seconds, polymerization at 72° C. for 1 minute, 25˜40 cycles from denaturation to polymerization, and final extension at 72° C. for 7 minutes. PCR primers shown in [Table 1] were designed by using Primer 3 program, which were purchased from Bioneer (Daejeon, Korea). […]
(§3) The PCR product was electrophoresed on 1.5% agarose gel, which was stained with ethidium bromide (EtBr) and then visualized by using Gel Doc 2000 UV trans-illuminator (Bio-Rad Laboratories, Hercules, Calif., […]). Analysis was performed with Quantity One software (Bio-Rad Laboratories).

A549 cells = experiment: RT-PCR of cytokine mRNA levels in A549 cells; format: cell-based, human; details: 2 ng, FIG. 2A
Experimental: as §1, §2
Phase II RT-PCR was performed with oligo-dT primer, reverse transcriptase, specific primer set, and Taq polymerase (Takara, Shiga, Japan). Total RNA was isolated according to the standard protocol. cDNA was synthesized by using Accusript High Fidelity 1st Strand cDNA Synthesis Kit (Stratagene) according to the manufacturer's instruction. 1 μl of the synthesized cDNA was used for PCR with 20 μl of reaction mixture containing 0.5 U ExTaq DNA polymerase, 1× buffer, 1 mM dNTP mix (Takara) and specific primer set. PCR amplification was performed using GeneAmp PCR system 2700 (Applied Biosystems, Foster city, CA, USA) as follows: predenaturation at 94° C. for 5 minutes, denaturation at 94° C. for 45 seconds, annealing at 56° C. for 45 seconds, polymerization at 72° C. for 1 minute, 25˜40 cycles from denaturation to polymerization, and final extension at 72° C. for 7 minutes. PCR primers shown in [Table 1] were designed by using Primer 3 program, which were purchased from Bioneer (Daejeon, Korea). At this time, GAPDH was used as the internal control.
as §3

NC mouse = experiment: Atopy treatment effect in NC mouse model; format: in vivo; details: local spreading on skin, FIG. 3
Source text: NC mouse is the mouse showing typical atopy symptom when it is raised in the conventional space. Genekwadapnin or yuanhuacine was spread locally on NC mouse starting to show atopy symptom, followed by observation of changes of atopy symptom.

Balb/C mouse = experiment: Atopy treatment effect in DNCB atopy induced mouse model; format: in vivo; details: score 10˜13 group with severe atopic symptoms, FIG. 4
Experimental: DNCB, one of allergens, was spread on the shaved skin of a normal Balb/C mouse to induce atopy intentionally. Atopy symptoms varied from the dose of DNCB and the treatment period, which were classified into different score groups (score 4˜8 group and score 10˜13 group). In the mouse group (score 4˜8 group) which was treated with a lower dose of DNCB, atopic skin was recovered to normal skin within 24 hours from the treatment of genekwadapnin or yuanhuacine. […] At that time, the test was performed in duplicate with 10 mice each.

atopy patients = experiment: Atopy treatment effect in atopy patient; format: in vivo, human; details: 5 ug/ml spread on the skin, FIG. 5
Experimental: After spreading genekwadapnin or yuanhuacine on the skin of atopy patients, atopy treatment effect of the compound was confirmed.
Particularly, 5 ug/ml of genekwadapnin or yuanhuacine was spread on the skin of atopy patients, followed by observation for 5˜20 days. The treatment effect was confirmed by Medream Skin Clinic (Goejeong-dong, Seogu, Daejeon, Korea).

PKC isotype = experiment: Intracellular mechanism: phosphorylation level of PKC isotype in NK92 cells (western blot); format: cell-based, human; details: 500 ng/ml, 12 hours, FIG. 6
Experimental: To investigate the intracellular mechanism of genekwadapnin or yuanhuacine, the NK92 cells cultured in <Example 2> were treated with genekwadapnin or yuanhuacine at the concentration of 500 ng/ml. 12 hours later, phosphorylation level of PKC isotype was investigated by using antibodies. The quantity of protein used herein was confirmed by using GAPDH.
Particularly, the cells treated with genekwadapnin or yuanhuacine were dissolved in ice by using cold SDS-lysis buffer [(50 mM HEPES, 150 mM NaCl, 0.2 mM EDTA, 0.5% NP-40, 0.1% SDS, 1 mM Na3VO4, 10 mM NaF, and complete Protein Inhibitor Cocktail (Roche)] for 30 minutes. The dissolved cell solution was spinned at the speed of 13,000 rpm for 30 minutes in a high-speed rotating machine to precipitate insoluble part and then water soluble part was separated. The separated cell aqueous solution was quantified, followed by electrophoresis using 10˜20% SDS-PAGE. Cellular protein separated on the gel was transcribed onto PVDF membrane (Millipore, Billerica, Mass., USA) at 100 V for 2 hours. To confirm PCK isotype phosphorylated in the cells, poly rabbit anti-PKD1, -phosphoPKD1 (Ser916), -phosphoPKDl (Ser744/748), -phosphoPKCα/βII, -phosphoPKCδ, -phosphoPKCθ, and -phosphoPKCζ/λ IgG (Cell signaling Technology, USA) (1:1000) were used as primary antibodies. As a secondary antibody, horseradish peroxidase peroxidase-conjugated goat anti-rabbit IgG (Santa Cruz Biotechnology, USA) (1:3000) was treated at room temperature for 60 minutes. To confirm the equal amount of cellular protein, poly rabbit anti-GAPDH IgG (Santa Cruz Biotechnology, Pasadena, Calif., USA) was used.

[1] = NK92 cells (printed NR92), 12 hours after treatment

C=C(C)[C@@]12OC3(/C=C/C=C/CCCCC)O[C@@H]1[C@@H]1[C@@H]4O[C@]4(CO)[C@@H](O)[C@]4(O)C(=O)C(C)=C[C@H]4[C@@]1(O3)[C@H](C)[C@H]2OC(=O)c1ccccc1 [yuanhuacine]
transcript of type II cytokine, IL-4 (NK92 cells; [1]): not induced
transcripts of Type I cytokines, IFN-γ, IL-2, and IL-12 (NK92 cells; [1]): significantly increased
transcripts of IL-15 and IL-18 (NK92 cells; NK92 cells, 12 hours): not controlled
transcript of type II cytokine, IL-4 (A549 cells; 12 hours after treatment): not induced
transcripts of Type I cytokines, IFN-γ, IL-2, and IL-12 (A549 cells; 12 hours after treatment): significantly increased
transcripts of IL-15 and IL-18 (A549 cells; 12 hours): not controlled
atopy symptom on the back where the compound was spread (NC mouse): significantly reduced
skin biopsy: distribution of inflammatory cells, phenotype of the treated area (NC mouse): almost normal phenotype
speed of recovery versus the control group (Balb/C mouse): at least two times faster
time until atopic skin was recovered to normal (atopy patients; minor symptoms): 5 days
time until atopic skin was recovered to normal (atopy patients; severe symptoms): 20 days
PKD1 level (PKC isotype): not changed
phosphorylation of other types of PKC isotype (PKC isotype): not phosphorylated
phosphorylation of serin residues (744th/748th, and 916th sites of PKD1 protein) (PKC isotype): confirmed
